From patent publication US10874740B2, “5-ALA derivatives and use thereof” (UNIVERSITE DE GENEVE, priority 2015, dated 2020)
Where a name gives a salt, the structure may show the parent alone.

Tests used:
[1] = Chemical stability in buffer at three pH values (UPLC); format: physicochemical; conditions: 5 mM, 37° C., 20 mM buffers pH 4.00, 7.40, 8.90
Procedure: Chemical stability was investigated for compounds of the invention as compared to the known ester ALA-Hex as follows: Chemical stability was assayed at three different pH value by dissolving the compound of interest (or ALA-Hex control) in an appropriate buffer (pH=4.00 acetate buffer; pH=7.40 phosphate buffer; and pH 8.90 borate buffer). The buffer concentration was 20 mM. The solution was kept at 37° C. and assayed at different time points. Quantification of the starting material and degradation products was performed by UPLC using the Thermo Scientific Accela UPLC-MS system. The column used was Macherey-Nagel Nucleodur C18 Gravity 50/2 1.8 μm. 10 μL aliquots were injected and eluted using 10% acetonitrile and 90% ammonium formate buffer (10 mM) isocratic elution. The column was kept at 40° C. and the flow rate was 0.4 mL/min. The quantification was performed by integrating AUCs of the chromatograms of the peaks of interest at 220 nm.

PC3 cell line = assay: Porphyrin accumulation (PpIX fluorescence) in PC3 cells; format: cell-based, human; conditions: for porphyrin synthesis capability (fluorescence kinetics) compared to ALA-hex: 1 mM; for concentration for optimal (highest) porphyrin formation: tested 0.1 to 3.3 mM
Procedure: (§1) Human bladder carcinoma cell line T24 (ATTC® HTB-4™), human lung adenocarcinoma cell line A549 (ATTC® CCL-185™), human prostate cancer cell line PC-3 (ATTC® CRL-1435™), and human glioblastoma cell line U-87Mg (ATTC® HTB-14™) were grown as monolayers and maintained in DMEM^+GlutaMAX™-I medium, F12K nutrient mix, and MEM, respectively. Culture media were supplemented with 10% fetal calf serum (FCS) and […] streptomycin and 100 IU/ml penicillin. Cells were cultivated at 37° C. in humidified 95% air and 5% CO2 atmosphere and routinely maintained by serial passage in a new medium every 2-5 days, depending on the cell type.
(§2) Cell viability was measured using an MTT assay. T24 (5000 cells/well), PC3 (12000 cells/well), A549 (10000 cells/well) and U87Mg (10000 cells/well) were seeded in a 96-well plate and grown 12 to 18 hours. Then, the medium was replaced with medium containing increasing concentrations of different compounds of the invention (from 0.1 to 3.3 mM) and PPIX fluorescence was recorded with a plate reader (Safire, Tecan, Switzerland) at different time points (1, 2, 4, 6, 8 and 24 h). Excitation wavelength was set at 405 nm and emission wavelength at 630 nm. After 24 hours of incubation with different products, the cells were washed twice with DPBS and fresh medium was put into each well. They were then either irradiated with a light dose of 10 J/cm^2 or kept in the dark. After background subtraction, porphyrin accumulation was calculated according to the fluorescence intensity at 635 nm.

A549 cell line = assay: Porphyrin accumulation (PpIX fluorescence) in A549 cells; format: cell-based, human; conditions: tested 0.1 to 3.3 mM
Procedure: as §1
as §2, with “After 24 hours of incubation with different products, the cells were washed twice with DPBS and fresh medium was put into each well. They were then either irradiated with a light dose of 10 J/cm^2 or kept in the dark.” left out

U87-MG cell line = assay: Porphyrin accumulation (PpIX fluorescence) in U87-MG cells; format: cell-based, human; conditions: tested 0.1 to 3.3 mM
Procedure: as §1
as §2, with “After 24 hours of incubation with different products, the cells were washed twice with DPBS and fresh medium was put into each well. They were then either irradiated with a light dose of 10 J/cm^2 or kept in the dark.” left out

T24 cell line = assay: Porphyrin accumulation (PpIX fluorescence) in T24 cells; format: cell-based, human; conditions: tested 0.1 to 3.3 mM
Procedure: as §1
as §2, with “After 24 hours of incubation with different products, the cells were washed twice with DPBS and fresh medium was put into each well. They were then either irradiated with a light dose of 10 J/cm^2 or kept in the dark.” left out

[2] = In vivo chicken acute toxicity (chick embryo, intravenous); conditions: chicken (chick embryo), in vivo; chick embryos, intravenous injection, viability 24 h after injection
Procedure: (§3) 5-ALA-Hex is known for its pronounced acute toxicity after intravenous injection and the LD50 of the compounds of the invention was determined by escalating doses of compounds dissolved in milliQ™ water and pH adjusted to 7.4 administered to embryos via intravenous injection. The viability of chick embryos has been evaluated after 24 h after injection. […] This higher LD50 value is believed to be a consequence of the rapid conversion into 5-ALA-Hex. Therefore, the very high doses of Compound 1 that were tolerated by chick embryos (LD50 of 500 μmol/kg) are consistent since this compound is much more slowly converted into 5-ALA-Hex (and 5-ALA) in all tissues expressing alkaline phosphatase.

chick embryos = assay: as above
Procedure: as §3

CAM U87Mg spheroid tumor = assay: In vivo CAM U87Mg spheroid tumor model, fluorescence imaging; set-up: species or system chick; conditions: Compound 7 100 μmol/kg; for tumor fluorescence signal / contrast: intravenous, Compound 1 300 μmol/kg, PpIX 100 μmol/kg, imaging 0, 30, 60, 120 min
Procedure: Compounds of the invention were tested in vivo in using the chorioallantoic membrane (CAM) model U87-Mg tumor spheroids were obtained using a modified procedure (De Magalhaes et al., 2010, 20-26) using 2.5×10^4 cells/mL. Spheroids grew 4 days before inoculation into the CAM. On embryonic development day (EDD) 7, the hole in the eggshell was enlarged to allow access to the CAM vasculature, using a needle (25 Gauge) a hole was drilled in the CAM. A binocular lens Leica M80 (Wetzlar, Germany) was used to perform the inoculation. Once the hole was pierced in the CAM, the spheroid (approximately of 200 μm) was placed in the cavity beneath the hole. Cell medium (20 μL) was placed on the spheroid to allow the tumor to attach to the CAM membrane and develop. Then, the eggs were sealed with parafilm and returned to the incubator to let spheroids grow until EDD13. Compounds were injected intravenously into the CAM vasculature (10-40 μL), preferentially into a large blood vessels using a needle (gauge 33, 51 mm, tap N type) attached to a 100 μL syringe (Hamilton, Reno, Nev.). Fluorescence imaging of tumor nodules was done with 12-bit monochrome CDD camera (Retiga EX Q-Imaging Canada) connected to fluorescence Eclipse E600 FN microscope with a CFI achromat objective characterized by magnification 4×, numerical aperture of 0.10 and a working distance of 30 mm (Nikon, Tokyo, Japan). A conical holder was used to place the eggs during experimentation under the objective of fluorescence microscope. A mercury arc lamp HBO 103/W/2 (MS Scientific Berlin, Germany) was used to provide illumination. For the detection of PpIX a BV-2A cube (Nikon, Tokyo, Japan) with an excitation filter: 400-440 nm, a dichroic mirror (455 nm) and an emission filter (470 nm) was used. A hollow slider filter 650/50 nm was added. Band pass filter 560/40 was used to image the autofluorescence of tumors. All pictures were taken with a 90 ms exposure and gain set at 50. […] Data was analysed using multiple t-tests and statistical significance determined at each time point.

[3] = Nanoassembly formation and size by Dynamic Light scattering (DLS); format: physicochemical; conditions: for formation of nanoassemblies in aqueous solution: ethanol solution added dropwise to MiliQ water; for average diameter of particles (DLS): nanomicelles 1 mg/mL in water
Procedure: 1 mg of compound 4 or compound 6 was dissolved in ethanol (300 μL). This solution was slowly added dropwise using a microsyringe to MiliQ water (1.2 mL) under magnetic stirring (500 RPM). […] The organic solvent was evaporated under reduced pressure (100 mbar) at 40° C. yielding the final solution of nanomicelles of 1 mg/mL which were analysed by Dynamic Light scattering (DLS) using Zetasizer Nano ZS machine (Malvern) and stored at ambient temperature. Dynamic Light scattering (DLS) results are presented under FIG. 4 for compound 4 (A) and for compound 6 (B) and show a high homogeneity in size of the particule population with an average diameter of about 73 nm for compound 4 and 98.5 nm for compound 6.

[4] = tested on: alkaline phosphatase from calf intestine; assay: In vitro enzymatic activation by alkaline phosphatase (UPLC); format: biochemical; conditions: borate buffer pH 8.90, 0.5 mM magnesium chloride, 1 U to 100 U alkaline phosphatase, 37° C.
Procedure: The ability of compounds of the invention to release ALA in presence of a phosphatase was investigated as follows: In vitro activation of compounds of interest by alkaline phosphatase was assayed by dissolving the compound of the invention (or ALA-Hex control) in 20 mM borate buffer at pH 8.90 containing 0.5 mM magnesium chloride and 1 U to 100 U of alkaline phosphatase from calf intestine (Applichem). The solution was kept at 37° C. and assayed at different time points. Quantification of the starting material and degradation products was performed by UPLC using the Thermo Scientific Accela UPLC-MS system. The column used was Macherey-Nagel Nucleodur C18 Gravity 50/2 1.8 μm. […] aliquots were injected and eluted using appropriate acetonitrile and ammonium formate buffer (10 mM) ratio with isocratic elution according to the compound of invention. The quantification was performed by integrating AUCs of the chromatograms of the peaks of interest at 220 nm.

Row | Structure (SMILES) | chemical stability (% of compound remaining in solution versus time) as compared to ALA-Hex [1] | porphyrin synthesis capability (fluorescence kinetics) compared to ALA-hex (PC3 cell line) | concentration for optimal (highest) porphyrin formation (PC3 cell line) | concentration for optimal (highest) porphyrin formation (A549 cell line) | concentration for optimal (highest) porphyrin formation (U87-MG cell line) | concentration for optimal (highest) porphyrin formation (T24 cell line) | LD50 at 24 h [2] | increase in LD50 compared to 5-ALA-Hex (chick embryos) | tumor fluorescence signal / contrast (CAM U87Mg spheroid tumor) | formation of nanoassemblies in aqueous solution [3] | average diameter of particles (DLS) [3] | LD50 (chick embryos; intravenous injection, viability 24 h after injection) | release of ALA upon activation of a phosphatase [4] | time post injection at which fluorescence started to outline the tumors (CAM U87Mg spheroid tumor; intravenous into CAM vasculature)
1 | CCCCCCOC(=O)CCC(=O)CNP(=O)(O)Oc1ccccc1 [Compound 1, Triethylammonium salt of hexyl 5-((hydroxy(phenoxy)phosphoryl)amino)-4-oxopentanoate] | increased chemical stability | comparable porphyrin synthesis capability | 3.3 mM | 3.3 mM | 1.0 mM | 3.3 mM | 500 µmol/kg | 7 fold | delayed onset of the fluorescence signal but a robust contrast | – | – | – | – | –
2 | CCCCCCOC(=O)CCC(=O)CNP(=O)(O)OCCC/C(C)=C/CC/C(C)=C/CC/C=C(\C)CC/C=C(\C)CCC=C(C)C [Compound 4, Hexyl 5-((hydroxy(((4E,8E,12E,16E)-4,8,13,17,21-pentamethyldocosa-4,8,12,16,20-pentaen-1-yl)oxy)phosphoryl)amino)-4-oxopentanoate] | – | – | – | – | – | – | – | – | – | Nanoassemblies formed spontaneously | about 73 nm | – | – | –
3 | CCCCCCOC(=O)CCC(=O)CN [Compound 5-ALA-Hex, 5-ALA-hexyl ester, reference compound] | – | – | – | – | – | – | – | – | – | – | – | 75 µmol/kg | – | –
4 | CCCCCCOC(=O)CCC(=O)CNP(=O)(NCC(=O)CCC(=O)OCCCCCC)OCCC/C(C)=C/CC/C(C)=C/CC/C=C(\C)CC/C=C(\C)CCC=C(C)C [Compound 6, Bis-hexyl 5-((hydroxy(((4E,8E,12E,16E)-4,8,13,17,21-pentamethyldocosa-4,8,12,16,20-pentaen-1-yl)oxy)phosphoryl)bis-amino)-4-oxopentanoate] | – | – | – | – | – | – | – | – | – | Nanoassemblies formed spontaneously | ~98.5 nm | – | – | –
5 | CCCCCCOC(=O)CCC(=O)CNC(=O)OCOP(=O)(O)O [Compound 7, hexyl 4-oxo-5-((((phosphonooxy)methoxy)carbonyl)amino)pentanoate] | increased chemical stability | comparable porphyrin synthesis capability | 0.33 mM | 0.33 mM | 0.1 mM | 0.1 mM | 200 µmol/kg | several fold | excellent and statistically significant signal to background at 1 h and also at 2 h | – | – | – | slower than the one from compound 1 | 30 min
